Assay results taken from patent publication US11702402B2, “Small molecules that block proteasome-associated ubiquitin receptor RPN13 function and uses thereof” (DANA-FARBER CANCER INSTITUTE, INC., priority 2018, dated 2023).
Entries after “also recorded” stand apart in the source; their conditions may differ.

Assays:
[1] = system: p53/p21 apoptotic signaling axis; assay: p53/p21 signaling immunoblot; format: cell-based, Human; conditions: ANBL6.BR; WL40 (1 μM) versus RA190 (1 μM)
MM.1R cells = assay: MM.1R cell viability (WST); format: cell-based, Human; conditions: MM.1R (dexamethasone-resistant), 48 hours
Text: (§1) The IC50 of WL40 for cell lines is shown.

normal PBMCs = assay: Viability of normal PBMCs; format: cell-based, Human; conditions: 48 hours
Experimental: FIGS. 5A and 5B show PBMCs from normal healthy donor treated with WL40 and WL44 at the indicated concentrations for 48 hours. […]
as §1

[2] = system: polyubiquitinated (PolyUb) protein; assay: Polyubiquitinated protein immunoblot in MM.1S and ANBL6.BR cells; format: cell-based, Human; conditions: MM.1S: WL40 200 nM, RA190 300 nM, bortezomib 5 nM; ANBL6.BR: WL40 1 μM 6 hours
Experimental: (§2) MM.1S cells, which were treated with DMSO control, bortezomib, or WL40 at indicated concentration for 3 hours; protein lysates were analyzed for different proteasome activities (CT-L, chymotrypsin-like; T-L, trypsin-like; C-L, caspase-like). FIG. 20B is a bar graph showing percent proteasome activity after normalization with DMSO control (mean±SD; n=3). Recombinant 20S proteasome was incubated with DMSO, bortezomib, or WL40 for 30 minutes, followed by assessment of the above-noted proteasome activities. FIG. 20C MM.1S cells were pretreated with exemplary proteasome inhibitor MG132 (10 μM) for 1 hour, followed by addition of WL40 (400 nM) for 8 hours. […] Total protein lysates were subjected to immunoblots for Rpn13 and α-tubulin. […] FIG. 20E ANBL6.BR cells were treated with WL40 (400 nM) or RA190 (500 nM) for 16 hours; protein lysates were subjected to immunoblot analysis using anti-Rpn13 or anti-β-actin Abs.
(§3) Cellular protein extracts were prepared using RIPA lysis buffer (50 mM Tris-HCl, 150 mM NaCl, 1% NP-40, 0.5% sodium deoxycholate, and 0.1% SDS). […]
(§4) Next, the effect of WL40 on additional MM cell lines, including p53-mutated RPMI-8226 cells or bortezomib-resistant ANBL6.BR cells, was evaluated. […]

RPN13 [3] = target: T1, RPN13 (Homo sapiens, UniProt Q16186); assay: Rpn13 immunoblot in ANBL6.BR cells; format: cell-based; set-up: endogenous in cells; host or cells: MM.1S; MM.1S-CRBN KO; RPMI-8226; ANBL6.BR; conditions: ANBL6.BR (bortezomib-resistant); 400 nM; 16 hours
T1 sequence (Q16186 whole entry): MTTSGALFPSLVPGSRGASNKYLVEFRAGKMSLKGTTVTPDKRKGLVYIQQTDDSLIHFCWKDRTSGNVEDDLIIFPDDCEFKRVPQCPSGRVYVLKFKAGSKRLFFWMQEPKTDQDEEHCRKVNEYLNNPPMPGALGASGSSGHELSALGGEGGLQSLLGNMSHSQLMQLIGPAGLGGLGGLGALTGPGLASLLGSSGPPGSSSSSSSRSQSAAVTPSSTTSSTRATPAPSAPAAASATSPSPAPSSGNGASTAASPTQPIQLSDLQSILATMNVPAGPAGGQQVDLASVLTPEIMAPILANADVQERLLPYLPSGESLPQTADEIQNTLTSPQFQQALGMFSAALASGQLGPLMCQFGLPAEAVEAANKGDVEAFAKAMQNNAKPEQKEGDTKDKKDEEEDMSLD
Experimental: as §2, §3, §4

RPN13 [4] = target: T1, RPN13; assay: Rpn13 immunoblot in MM.1S-CRBN KO cells; format: cell-based; set-up: endogenous in cells; host or cells: MM.1S; MM.1S-CRBN KO; RPMI-8226; ANBL6.BR; conditions: 400 nM, 16 hours, versus DMSO
Experimental: FIGS. 19A-19I show the exemplary design and characterization of exemplary Rpn13 degrader WL40. […] WL40 was created by linking the Rpn13 inhibitor RA190 to the IMiD thalidomide as a ligand for the CRBN E3 ligase via a PEG linker. […] FIG. 19C is a schematic cartoon for the novel AlphaScreen assay to measure the binding activity of inhibitor with RPN13 proteins. […] FIG. 19E depicts immunoblot analysis of multiple myeloma 1S (MM.1S) cells, which were treated with WL40 or RA190 at the indicated concentrations and time periods; protein lysates were subjected to the immunoblot analysis using anti-Rpn13 or anti-tubulin Abs. FIG. 19F depicts flow cytometry analysis of MM.1S cells, which were treated with DMSO control, WL40 (400 nM), or RA190 (500 nM) for 16 hours; cells were then washed and stained with Rpn13 Ab conjugated with AlexaFluor-647, followed by the flow cytometry analysis. Isotype Ab conjugated to AlexaFluor-647 was used as control for non-specific binding. Data was quantified using FACS Diva (BD Biosciences, USA) and FlowJo (FlowJo LLC, USA). […]
To confirm that CRBN presence is a prerequisite for the function of WL40 in cells, CRBN-knockout (KO) MM.1S cells^27, 38 were utilized, and the effect of WL40 on Rpn13 degradation was examined. […] GFPu-1 cells were treated with WL40, and GFP levels were then analyzed using immunoblotting. […]

In the case of `O=C1CCC(N2C(=O)c3cccc(NCCOCCOCCOCCC(=O)N[C@@H](Cc4ccccc4)C(=O)N4C/C(=C\c5ccc(Cl)c(Cl)c5)C(=O)/C(=C/c5ccc(Cl)c(Cl)c5)C4)c3C2=O)C(=O)N1` (stereo partly shown) [WL40], the “induction of p53/p21 signaling” value [1] is reported as “earlier induction of this pathway”, the “cytotoxicity (cell viability)” value (MM.1R cells) is reported as “more cytotoxic than the parental Rpn13 inhibitor RA190” and the “viability of normal PBMCs” value (normal PBMCs; at the IC50, Wst-1) is reported as “do not significantly affect the viability”. The “viability of normal PBMCs” value (normal PBMCs; at the IC50 for MM cells, CellTiter-Glo) was “does not affect viability of normal PBMCs”, the “PolyUb protein accumulation (immunoblot)” value [2] was “marked increase in PolyUb proteins; also recorded: more rapid and higher molecular weight PolyUb versus bortezomib” and the “Rpn13 levels (immunoblot)” value (RPN13 [3]) was “induced RPN13 degradation”. The “Rpn13 levels (immunoblot)” value (RPN13 [4]) was “no decrease in Rpn13 levels”.
